The text below walks through data of US12600713B2, “Crystalline forms of 6-((6,7-dimethoxyquinazolin-4-yl)oxy)-N,2-dimethylbenzofuran-3-carboxamide” (HUTCHMED LIMITED, priority 2014, dated 2026).

A short description of the data set: Stability of Form I under high temperature, high humidity and illumination conditions (influence factor experiment, 10 days). It counts as physicochemical. On the procedure: Determination method: the test sample of Form I prepared in Example 1 was added to a culture dish, which was uncovered and put in a sealed clean container; then the container was placed under the conditions of the temperature of 60° C., the temperature of 25° C. and the relative humidity of 92.5%±5%, and the illumination of 4500 lx±500 lx respectively for 10 days; then sampled, investigated the purity and crystalline form of the sample, and compared the results of the investigation, which were shown in the following table.

Structures are written as SMILES.

Consider `CNC(=O)c1c(C)oc2cc(Oc3ncnc4cc(OC)c(OC)cc34)ccc12` [Form I, 6-((6,7-dimethoxyquinazolin-4-yl)oxy)-N,2-dimethylbenzofuran-3-carboxamide], for which the “Purity A%” value is listed as 98.94 A% (0 day (initial sample, Form I of Example 1)); 98.94 A% (25° C., relative humidity 92.5 ± 5% RH, open dish, 10 days); 98.94 A% (60° C., open dish, 10 days); 98.94 A% (illumination 4500 lx ± 500 lx, open dish, 10 days). Further, for the setting “high temperature, high humidity and illumination conditions for 10 days”, the “chemical purity and crystalline form after storage (stability conclusion)” value was “not changed”.
